Experimental findings from ChEMBL document CHEMBL4266049, “A Steroid-Type Antioxidant Targeting the Keap1/Nrf2/ARE Signaling Pathway from the Soft Coral Dendronephthya gigantea” (J Nat Prod, 2018) are described below.

Each structure is given as a SMILES string. Calls of active or inactive are those of the source. The calls are words filed in the database; no cut-off is given here.

Series [1] has as its system PC-12. As to the kind of experiment: Cytotoxicity against rat PC12 cells assessed as reduction in cell viability at 10 uM after 24 hrs by MTT assay. The following applies: pc-12, 24 h. The class given is cell-based.
In series [2] the test system is PC-12. Description: Cytoprotective activity against H2O2-induced oxidative injury in rat PC12 cells assessed as cell viability at 10 uM pretreated for 24 hrs followed by 350 uM H2O2 challenge measured after 24 hrs by MTT assay (reference value: 60%). The class given is functional.
The test system of series [3] is PC-12. As to the kind of experiment: Cytoprotective activity against H2O2-induced oxidative injury in rat PC12 cells assessed as […] in cell viability at 10 uM pretreated for 24 hrs followed by 500 uM H2O2 challenge measured after 24 hrs by MTT assay. The class given is functional, cell-based.
For series [4], the system named is PC-12. As to the kind of experiment: Cytoprotective activity against H2O2-induced oxidative injury in rat PC12 cells assessed as increase in colony formation at 1 to 2 uM pretreated for 24 hrs followed by H2O2 challenge by crystal violet staining based assay. The class given is functional, cell-based.
Series [5] concerns PC-12. Description: Cytoprotective activity against H2O2-induced oxidative injury in rat PC12 cells assessed as decrease in LDH release after 24 hrs. The class given is functional, cell-based.
In series [6] the test system is PC-12. Description: Cytoprotective activity against H2O2-induced oxidative injury in rat PC12 cells assessed as inhibition of MDA production pretreated for 24 hrs followed by H2O2 challenge measured after 16 hrs. The class given is functional, cell-based.
Series [7] has as its system PC-12. Description: Cytoprotective activity against H2O2-induced oxidative injury in rat PC12 cells assessed as reduction in intracellular reactive oxygen species formation pretreated for 24 hrs followed by H2O2 challenge measured after 3 hrs by DCFH-DA dye based fluorescence microscopic analysis. Type of series: functional, cell-based.
In series [8] the target is T1, KEAP1/NRF2 (Rattus norvegicus) (UniProt O54968+P57790). As to the kind of experiment: Inhibition of Keap1/Nrf2 signaling in rat PC12 cells assessed as induction of nuclear translocation at 10 uM after 6 hrs by DAPI staining based fluorescence microscopic analysis. Type of series: cell-based.
Series [9] deals with T1, KEAP1/NRF2 (Rattus norvegicus). As to the kind of experiment: Inhibition of Keap1/Nrf2 signaling in rat PC12 cells assessed as induction of ARE by measuring increase in HO-1 expression after 24 hrs by Western blot analysis. Type of series: cell-based.
For series [10], the system named is PC-12. As to the kind of experiment: Cytoprotective activity against H2O2-induced oxidative injury in rat PC12 cells harboring siRNA assessed as increase in cell viability at 10 uM pretreated for 24 hrs followed by H2O2 challenge measured after 24 hrs by MTT assay. Type of series: functional, cell-based.
Series [11] deals with PC-12. Description: Cytoprotective activity against H2O2-induced oxidative injury in rat PC12 cells harboring siRNA assessed as increase in colony formation at 2 uM pretreated for 24 hrs followed by H2O2 challenge by crystal violet staining based assay. The class given is functional, cell-based.
Series [12] relates to PC-12. Description: Cytoprotective activity against H2O2-induced oxidative injury in rat PC12 cells harboring Nrf2 siRNA assessed as increase in cell viability at 10 uM pretreated for 24 hrs followed by H2O2 challenge measured after 24 hrs by MTT assay. Type of series: functional, cell-based.
The subject of series [13] is PC-12. Description: Cytoprotective activity against H2O2-induced oxidative injury in rat PC12 cells harboring Nrf2 siRNA assessed as increase in colony formation at 2 uM pretreated for 24 hrs followed by H2O2 challenge by crystal violet staining based assay. The class given is functional, cell-based.
For series [14], the system named is PC-12. Description: Cytoprotective activity against H2O2-induced oxidative injury in rat PC12 cells assessed as […] in cell viability at 10 uM pretreated for 24 hrs followed by 350 uM H2O2 challenge measured after 24 hrs by MTT assay. The class given is functional, cell-based.
The subject of series [15] is PC-12. As to the kind of experiment: Cytoprotective activity against H2O2-induced oxidative injury in rat PC12 cells assessed as increase in colony formation at 5 uM pretreated for 24 hrs followed by H2O2 challenge by crystal violet staining based assay. The class given is functional, cell-based.
The subject of series [16] is PC-12. As to the kind of experiment: Cytoprotective activity against H2O2-induced oxidative injury in rat PC12 cells assessed as inhibition of MDA production at 10 uM pretreated for 24 hrs followed by H2O2 challenge measured after 16 hrs. The class given is functional, cell-based.
Series [17] has as its system PC-12. As to the kind of experiment: Cytoprotective activity against H2O2-induced oxidative injury in rat PC12 cells assessed as reduction in intracellular reactive oxygen species formation at 10 uM pretreated for 24 hrs followed by H2O2 challenge measured after 3 hrs by DCFH-DA dye based fluorescence microscopic analysis. Type of series: functional, cell-based.
Series [18] concerns the target T1, KEAP1/NRF2 (Rattus norvegicus). Description: Inhibition of Keap1/Nrf2 signaling in rat PC12 cells assessed as induction of ARE by measuring increase in HO-1 expression at 10 uM after 24 hrs by Western blot analysis. The class given is cell-based.

For `C=C(CC[C@@H](C)[C@H]1CC[C@H]2[C@@H]3C(=O)C=C4C[C@@H](O)CC[C@]4(COC(C)=O)[C@H]3CC[C@]12C)C(C)C`, the Activity entry in series [1] is “Non-Toxic”; in series [2], 70%; in series [5] it was “Dose-dependent effect”; in series [7], “Dose-dependent effect”. Moreover, the outcome in series [3], in [4], in [10] and in series [11] was Active. In addition, the inhibition result in series [6] and in series [9] was “Dose-dependent effect” throughout. The inhibition result in series [8] is “Active”. Further, the result in series [12] and in [13] was inactive.
Consider `C=C(CC[C@@H](C)[C@H]1CC[C@H]2[C@@H]3[C@@H](OC(C)=O)C=C4C[C@@H](O)CC[C@]4(CO)[C@H]3CC[C@]12C)C(C)C`, for which the Activity entry in [1] was “Non-Toxic”. The result in [14] was inactive.
In the case of `CC(=O)O[C@H]1C=C2C[C@@H](O)CC[C@]2(CO)[C@H]2CC[C@]3(C)[C@@H]([C@H](C)/C=C/CC(C)C)CC[C@H]3[C@H]12`, in series [1], the Activity entry is “Non-Toxic”. Besides, the outcome in series [14] was inactive.
With `CC(C)CCC[C@@H](C)[C@H]1CC[C@H]2[C@@H]3[C@H](O)CC4=CC(=O)CC[C@]4(C)[C@H]3CC[C@]12C`, in series [14], the result was Active.
Turning to `C=C(/C=C/[C@@H](C)[C@H]1CC[C@H]2[C@@H]3[C@@H](OC(C)=O)C=C4C[C@@H](O)CC[C@]4(CO)[C@H]3CC[C@]12C)C(C)C`, the Activity result in [1] is “Non-Toxic”. The result in series [14] was inactive.
For the compound `CC(C)(C)c1cc(O)ccc1O`, the outcome in series [3], in series [15] and in [17] was Active. Also, the inhibition result in [16] and in [18] was “Active” each time.
Consider `C=C(CC[C@@H](C)[C@H]1CC[C@H]2[C@@H]3C(=O)[C@H]4O[C@]45C[C@@H](O)CC[C@]5(COC(C)=O)[C@H]3[C@H](OC(C)=O)C[C@]12C)C(C)C`, for which, in series [1], the Activity result is reported as “Non-Toxic”. Moreover, in series [14], the outcome was inactive.
On the same counts, the results for `C=C(/C=C/[C@@H](C)[C@H]1CC[C@H]2[C@@H]3C(=O)[C@H]4O[C@]45C[C@@H](O)CC[C@]5(COC(C)=O)[C@H]3CC[C@]12C)C(C)C` are “Non-Toxic” and “inactive”.
`C=C(CC[C@@H](C)[C@H]1CC[C@H]2[C@@H]3[C@H](O)C=C4C[C@@H](O)CC[C@]4(COC(C)=O)[C@H]3CC[C@]12C)C(C)C`: the Activity entry in series [1] is “Non-Toxic”; in [2], 70%. Further, the outcome in series [3] was inactive.
With `C=C(CC[C@@H](C)[C@H]1CC[C@H]2[C@@H]3[C@@H](O)C=C4C[C@@H](O)CC[C@]4(C)[C@H]3CC[C@]12C)C(C)C`, the Activity entry in series [1] is “Non-Toxic”. Also, the result in [14] was inactive.
The matching figures for `C=C(CC[C@@H](C)[C@H]1CC[C@H]2[C@@H]3C(=O)[C@H]4O[C@]45C[C@@H](O)CC[C@]5(COC(C)=O)[C@H]3CC[C@]12C)C(C)C`: “Non-Toxic” and “inactive”.
The matching figures for `C=C(/C=C/[C@@H](C)[C@H]1CC[C@@H]2[C@]1(C)C[C@H](O)[C@@H]1[C@@]3(C)C[C@H](O)[C@H](O)[C@@H](C)[C@@H]3CC(=O)[C@@]21O)C(C)C`: “Non-Toxic” and “inactive”.
The matching figures for `C=C(CC[C@@H](C)[C@H]1CC[C@H]2[C@@H]3C(=O)[C@H]4O[C@]45C[C@@H](O)CC[C@]5(CO)[C@H]3CC[C@]12C)C(C)C`: “Non-Toxic” and “inactive”.
As for `CC(C)CCC[C@@H](C)[C@H]1CC[C@H]2[C@@H]3C(=O)C=C4C[C@@H](O)CC[C@]4(C)[C@H]3CC[C@]12C`, the result in series [14] was Active.
As to `C=C(CC[C@@H](C)[C@H]1CC[C@H]2[C@@H]3CC=C4C[C@@H](O)CC[C@]4(CO)[C@H]3CC[C@]12C)C(C)C`, the Activity result in series [1] was “Non-Toxic”. Also, in series [14], the outcome was inactive.
`C=C(/C=C/[C@@H](C)[C@H]1CC[C@@H]2[C@]1(C)C[C@H](O)[C@@H]1[C@@]3(C)C[C@H](O)[C@H](OC(C)=O)[C@@H](C)[C@@H]3CC(=O)[C@@]21O)C(C)C`: in [1], the Activity entry is “Non-Toxic”. Also, the result in series [14] was inactive.
On to `C=C(CC[C@@H](C)[C@H]1CC[C@@H]2[C@]1(C)C[C@H](O)[C@@H]1[C@@]3(C)C[C@H](O)[C@H](O)[C@@H](C)[C@@H]3CC(=O)[C@@]21O)C(C)C`, for which the Activity result in series [1] is recorded as “Non-Toxic”. Besides, the result in [14] was inactive.
The matching figures for `CC(=O)O[C@H]1C=C2C[C@@H](O)CC[C@]2(CO)[C@H]2CC[C@]3(C)[C@@H]([C@H](C)CCCC(C)C)CC[C@H]3[C@H]12`: “Non-Toxic” and “inactive”.
